Toxic doses and inconclusive results are not listed. Cut-off read from the data, not from the text of the source: active = T/C of 150% or more; inactive = T/C below 125%.
System: L1210 leukemia ip in BDF1 mice, survival T/C
Assay: NCI In Vivo Anticancer Drug Screen. Data for tumor model L1210 Leukemia (intraperitoneal) in B6D2F1 (BDF1) mice
Conditions: higher = longer survival
Procedure, shortened: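 Each compound was tested against a transplantable tumor grown in mice. The endpoint was survival, with treated animals benchmarked against vehicle controls as a simple ratio.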

[1] = endpoint: mean survival time, dose: 50.0 mg/kg/injection, schedule: Q01DX009 (ip), vehicle: Klucel (hydroxypropylcellulose) (HPC)
[2] = endpoint: mean survival time, dose: 75.0 mg/kg/injection, schedule: Q01DX001 (ip), vehicle: Klucel (hydroxypropylcellulose) (HPC)
[3] = endpoint: mean survival time, dose: 100.0 mg/kg/injection, schedule: Q01DX009 (ip), vehicle: Klucel (hydroxypropylcellulose) (HPC)
[4] = endpoint: mean survival time, dose: 150.0 mg/kg/injection, schedule: Q01DX001 (ip), vehicle: Klucel (hydroxypropylcellulose) (HPC)
[5] = endpoint: mean survival time, dose: 200.0 mg/kg/injection, schedule: Q01DX009 (ip), vehicle: Klucel (hydroxypropylcellulose) (HPC)
[6] = endpoint: mean survival time, dose: 300.0 mg/kg/injection, schedule: Q01DX001 (ip), vehicle: Klucel (hydroxypropylcellulose) (HPC)
[7] = endpoint: mean survival time, dose: 100.0 mg/kg/injection, schedule: Q04DX003 (ip), vehicle: saline
[8] = endpoint: mean survival time, dose: 200.0 mg/kg/injection, schedule: Q04DX003 (ip), vehicle: saline
[9] = endpoint: mean survival time, dose: 400.0 mg/kg/injection, schedule: Q04DX003 (ip), vehicle: saline
[10] = endpoint: mean survival time, dose: 100.0 mg/kg/injection, schedule: Q04DX003 (ip), vehicle: Klucel (hydroxypropylcellulose) (HPC)
[11] = endpoint: mean survival time, dose: 200.0 mg/kg/injection, schedule: Q04DX003 (ip), vehicle: Klucel (hydroxypropylcellulose) (HPC)
[12] = endpoint: mean survival time, dose: 400.0 mg/kg/injection, schedule: Q04DX003 (ip), vehicle: Klucel (hydroxypropylcellulose) (HPC)
[13] = endpoint: mean survival time, dose: 50.0 mg/kg/injection, schedule: Q04DX003 (ip), vehicle: saline
[14] = endpoint: mean survival time, dose: 100.0 mg/kg/injection, schedule: Q01DX001 (ip), vehicle: saline
[15] = endpoint: mean survival time, dose: 200.0 mg/kg/injection, schedule: Q01DX001 (ip), vehicle: saline

Measured: T/C

O=C(/C(=N/O)c1ccc(Cl)cc1)c1ccccc1
inactive: [1] 89 % of control | [2] 89 % of control | [3] 96 % of control | [4] 100 % of control | [5] 107 % of control | [6] 98 % of control

CC1C2CCC(C2)C1CO (stereo unspecified)
inactive: [7] 97 % of control | [8] 101 % of control | [9] 101 % of control

O=C(CCCCCCC(=O)C[n+]1ccccc1CO)C[n+]1ccccc1CO
inactive: endpoint: mean survival time, dose: 12.5 mg/kg/injection, schedule: Q04DX003 (ip), vehicle: saline 101 % of control

COc1ccc(/C=N/Nc2c([N+](=O)[O-])cc(C)cc2[N+](=O)[O-])cc1
inactive: [3] 102 % of control | [5] 100 % of control | endpoint: mean survival time, dose: 400.0 mg/kg/injection, schedule: Q01DX009 (ip), vehicle: Klucel (hydroxypropylcellulose) (HPC) 100 % of control

CCN(CC)S(=O)(=O)/C=C\c1ccccc1
inactive: endpoint: mean survival time, dose: 50.0 mg/kg/injection, schedule: Q04DX003 (ip), vehicle: Klucel (hydroxypropylcellulose) (HPC) 96 % of control | endpoint: mean survival time, dose: 100.0 mg/kg/injection, schedule: Q01DX001 (ip), vehicle: Klucel (hydroxypropylcellulose) (HPC) 98 % of control | [10] 107 % of control | endpoint: mean survival time, dose: 200.0 mg/kg/injection, schedule: Q01DX001 (ip), vehicle: Klucel (hydroxypropylcellulose) (HPC) 107 % of control | [11] 102 % of control | endpoint: mean survival time, dose: 400.0 mg/kg/injection, schedule: Q01DX001 (ip), vehicle: Klucel (hydroxypropylcellulose) (HPC) 102 % of control | [12] 104 % of control

CSc1ccccc1N=Cc1cc(Cl)ccc1O
inactive: endpoint: mean survival time, dose: 100.0 mg/kg/injection, schedule: Q01DX001 (ip), vehicle: saline with Tween-80 90 % of control

C/C(=N\Nc1ccc([N+](=O)[O-])cc1[N+](=O)[O-])C(F)(F)F
inactive: endpoint: mean survival time, dose: 100.0 mg/kg/injection, schedule: Q01DX009 (ip), vehicle: saline sonified 95 % of control | [10] 94 % of control | endpoint: mean survival time, dose: 200.0 mg/kg/injection, schedule: Q01DX009 (ip), vehicle: saline sonified 98 % of control | [11] 104 % of control | endpoint: mean survival time, dose: 400.0 mg/kg/injection, schedule: Q01DX009 (ip), vehicle: saline sonified 95 % of control | [12] 104 % of control

O=C(NC(C(O)CO)C(O)C(O)CO)c1ccccc1 (stereo unspecified)
inactive: [7] 104 % of control | [8] 105 % of control | [9] 102 % of control

C=CC(=O)N1CCOCC1
inactive: endpoint: mean survival time, dose: 100.0 mg/kg/injection, schedule: Q04DX003 (ip), vehicle: saline with Tween-80 113 % of control | endpoint: mean survival time, dose: 200.0 mg/kg/injection, schedule: Q04DX003 (ip), vehicle: saline with Tween-80 100 % of control | endpoint: mean survival time, dose: 400.0 mg/kg/injection, schedule: Q04DX003 (ip), vehicle: saline with Tween-80 108 % of control

COc1ccc(C2c3cc4c(c(OC)c3CC3OCC(=O)C32)OCO4)cc1OC (stereo unspecified)
inactive: endpoint: mean survival time, dose: 12.5 mg/kg/injection, schedule: Q01DX009 (ip), vehicle: Klucel (hydroxypropylcellulose) (HPC) 110 % of control | endpoint: mean survival time, dose: 25.0 mg/kg/injection, schedule: Q01DX009 (ip), vehicle: Klucel (hydroxypropylcellulose) (HPC) 110 % of control | [1] 123 % of control | [13] 110 % of control | [2] 106 % of control | [3] 121 % of control | [7] 116 % of control | [4] 112 % of control | [5] 101 % of control | [8] 116 % of control | [6] 104 % of control | [9] 110 % of control | endpoint: mean survival time, dose: 600.0 mg/kg/injection, schedule: Q01DX001 (ip), vehicle: Klucel (hydroxypropylcellulose) (HPC) 115 % of control | endpoint: mean survival time, dose: 800.0 mg/kg/injection, schedule: Q04DX003 (ip), vehicle: saline 118 % of control | endpoint: mean survival time, dose: 1200.0 mg/kg/injection, schedule: Q01DX001 (ip), vehicle: Klucel (hydroxypropylcellulose) (HPC) 118 % of control | endpoint: median survival time, dose: 12.5 mg/kg/injection, schedule: Q01DX009 (ip), vehicle: Klucel (hydroxypropylcellulose) (HPC) 105 % of control | endpoint: median survival time, dose: 25.0 mg/kg/injection, schedule: Q01DX009 (ip), vehicle: Klucel (hydroxypropylcellulose) (HPC) 100 % of control | endpoint: median survival time, dose: 50.0 mg/kg/injection, schedule: Q01DX009 (ip), vehicle: Klucel (hydroxypropylcellulose) (HPC) 111 % of control | endpoint: median survival time, dose: 100.0 mg/kg/injection, schedule: Q01DX009 (ip), vehicle: Klucel (hydroxypropylcellulose) (HPC) 116 % of control

NC(=O)C(=O)c1ccco1
inactive: [14] 92 % of control | [15] 101 % of control | endpoint: mean survival time, dose: 400.0 mg/kg/injection, schedule: Q01DX001 (ip), vehicle: saline 108 % of control

NC(N)=N/N=C\c1ccccc1/C=N/N=C(N)N
inactive: endpoint: mean survival time, dose: 15.0 mg/kg/injection, schedule: Q01DX Z (ip), vehicle: saline 111 % of control | endpoint: mean survival time, dose: 15.0 mg/kg/injection, schedule: Q01DX Z (oral), vehicle: saline 116 % of control | endpoint: mean survival time, dose: 30.0 mg/kg/injection, schedule: Q01DX Z (ip), vehicle: saline 110 % of control | endpoint: mean survival time, dose: 30.0 mg/kg/injection, schedule: Q01DX Z (oral), vehicle: saline 111 % of control | endpoint: mean survival time, dose: 60.0 mg/kg/injection, schedule: Q01DX Z (oral), vehicle: saline 102 % of control | endpoint: mean survival time, dose: 120.0 mg/kg/injection, schedule: Q01DX Z (oral), vehicle: saline 111 % of control

ClC1(Cl)C2CCCCC21N1CCCCC1 (stereo unspecified)
inactive: endpoint: mean survival time, dose: 50.0 mg/kg/injection, schedule: Q01DX009 (ip), vehicle: saline 102 % of control | [13] 115 % of control | [14] 104 % of control | endpoint: mean survival time, dose: 100.0 mg/kg/injection, schedule: Q01DX009 (ip), vehicle: saline 87 % of control | [7] 94 % of control | [15] 98 % of control | [8] 101 % of control

NNC(=O)C12CCCCC1CCC2 (stereo unspecified)
inactive: endpoint: mean survival time, dose: 100.0 mg/kg/injection, schedule: Q01DX009 (ip), vehicle: acetone 88 % of control | endpoint: mean survival time, dose: 100.0 mg/kg/injection, schedule: Q04DX003 (ip), vehicle: acetone 100 % of control | endpoint: mean survival time, dose: 200.0 mg/kg/injection, schedule: Q04DX003 (ip), vehicle: acetone 100 % of control | endpoint: mean survival time, dose: 400.0 mg/kg/injection, schedule: Q01DX009 (ip), vehicle: acetone 87 % of control | endpoint: mean survival time, dose: 400.0 mg/kg/injection, schedule: Q04DX003 (ip), vehicle: acetone 105 % of control

OCC(O)C(O)C(O)C(O)CN=Cc1ccccc1O (stereo unspecified)
inactive: endpoint: mean survival time, dose: 100.0 mg/kg/injection, schedule: Q04DX002 (ip), vehicle: saline with Tween-80 109 % of control | endpoint: mean survival time, dose: 200.0 mg/kg/injection, schedule: Q04DX002 (ip), vehicle: saline with Tween-80 95 % of control | endpoint: mean survival time, dose: 400.0 mg/kg/injection, schedule: Q04DX002 (ip), vehicle: saline with Tween-80 103 % of control

From PubChem BioAssay AID248 (DTP/NCI, 2004)
